Measured values from ChEMBL document CHEMBL5050832, “Compounds and methods for regulating, limiting, or inhibiting avil expression” (2020).
The source made the active and inactive calls. No cut-off for these calls is given here.

How the values were obtained:
Homo sapiens = species: Homo sapiens; experiment: Binding affinity towards recombinant AVIL (unknown origin) measured by thermal shift assay
SJRH30 [1] = experiment: Antiproliferative activity against human Rh30 cells at 20 uM assessed as decrease in cell number measured by crystal violet staining method relative to control; assay type: functional, cell-based
Mesenchymal stem cells [2] = experiment: Antiproliferative activity against human mesenchymal stem cells at 20 uM assessed as decrease in cell number measured by crystal violet staining method relative to control; assay type: functional, cell-based
U-87MG ATCC = experiment: Downregulation of LIN28B expression in human U87 cells measured by qRT-PCR assay; assay type: functional, cell-based
SJRH30 [3] = experiment: Antiproliferative activity against human Rh30 cells; assay type: functional, cell-based
RD [4] = experiment: Antiproliferative activity against human RD cells at 20 uM assessed as decrease in cell number measured by crystal violet staining method relative to control; assay type: functional, cell-based
Mesenchymal stem cells [5] = experiment: Antiproliferative activity against human mesenchymal stem cells; assay type: functional, cell-based
RD [6] = experiment: Antiproliferative activity against human RD cells; assay type: functional, cell-based
[7] = Antiproliferative activity against human astrocytes; assay type: functional, cell-based; conditions: Astrocyte
U-87 MG = experiment: Antiproliferative activity against human U87 cells; assay type: functional, cell-based, U-87MG ATCC

Compound	Activity (Homo sapiens)	Activity (SJRH30 [1])	Activity (Mesenchymal stem cells [2])	Activity (U-87MG ATCC)	Activity (SJRH30 [3])	Activity (RD [4])	Activity (Mesenchymal stem cells [5])	Activity (RD [6])	IC50 [7]	IC50 (U-87 MG)
Nc1nccc(N2CCCC(CO)(CCCc3ccccc3)C2)n1 (centres undefined)	Active	Active	inactive	Active	Active	Active	inactive	Active		
c1ccc(CCC2CCN(CC3[C@H]4CNC[C@@H]34)CC2)cc1 (some centres undefined)	Active			Active						
Cc1cc(N2CCCC(CO)(CCCc3ccccc3)C2)nc(N)n1 (centres undefined)									5 µM	8 µM
CN(Cc1ccc(Oc2ccccc2)cc1)C(=O)[C@@H]1C[C@@H](O)CN1	Active			Active						
